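The concentration for 50% growth inhibition is given as GI50. TGI denotes the concentration required for complete inhibition of growth.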
Experiments:
Assay in all cases: NCI-60 cell line screen, 384-well format
OVCAR-3 ovarian = tested on: OVCAR-3 ovarian
SNB-19 CNS = tested on: SNB-19 CNS
EKVX NSCLC = tested on: EKVX NSCLC
T-47D breast = tested on: T-47D breast
SNB-75 CNS = tested on: SNB-75 CNS
CAKI-1 renal = tested on: CAKI-1 renal
NCI-H322M lung = tested on: NCI-H322M lung
M14 melanoma = tested on: M14 melanoma
MALME-3M melanoma = tested on: MALME-3M melanoma
HOP-62 NSCLC = tested on: HOP-62 NSCLC
BT-549 breast = tested on: BT-549 breast
HCT-15 colon = tested on: HCT-15 colon
COLO 205 colon = tested on: COLO 205 colon
HCC-2998 colon = tested on: HCC-2998 colon
NCI-H226 lung = tested on: NCI-H226 lung
SK-MEL-5 melanoma = tested on: SK-MEL-5 melanoma
NCI-H23 lung = tested on: NCI-H23 lung
SK-MEL-28 melanoma = tested on: SK-MEL-28 melanoma
UACC-62 melanoma = tested on: UACC-62 melanoma
MDA-MB-468 breast = tested on: MDA-MB-468 breast
PC-3 prostate = tested on: PC-3 prostate
SW-620 colon = tested on: SW-620 colon
NCI-H522 lung = tested on: NCI-H522 lung
A549 NSCLC = tested on: A549 NSCLC
MCF7 breast = tested on: MCF7 breast
OVCAR-8 ovarian = tested on: OVCAR-8 ovarian
UO-31 renal = tested on: UO-31 renal
SF-268 CNS = tested on: SF-268 CNS
MOLT-4 leukemia = tested on: MOLT-4 leukemia
MDA-MB-231 breast = tested on: MDA-MB-231 breast
U251 glioblastoma = tested on: U251 glioblastoma
KM12 colon = tested on: KM12 colon
HOP-92 NSCLC = tested on: HOP-92 NSCLC
SK-OV-3 ovarian = tested on: SK-OV-3 ovarian
SF-295 CNS = tested on: SF-295 CNS
TK-10 renal = tested on: TK-10 renal
RPMI-8226 leukemia = tested on: RPMI-8226 leukemia
OVCAR-5 ovarian = tested on: OVCAR-5 ovarian
SN12C renal = tested on: SN12C renal
NCI/ADR-RES ovarian = tested on: NCI/ADR-RES ovarian
A498 renal = tested on: A498 renal
HL-60(TB) leukemia = tested on: HL-60(TB) leukemia
ACHN renal = tested on: ACHN renal
786-0 renal = tested on: 786-0 renal
DU-145 prostate = tested on: DU-145 prostate
IGROV1 ovarian = tested on: IGROV1 ovarian
RXF 393 renal = tested on: RXF 393 renal
NCI-H460 NSCLC = tested on: NCI-H460 NSCLC
SR leukemia = tested on: SR leukemia
OVCAR-4 ovarian = tested on: OVCAR-4 ovarian
SF-539 CNS = tested on: SF-539 CNS
HCT-116 colon = tested on: HCT-116 colon
HT29 colon = tested on: HT29 colon
MDA-MB-435 melanoma = tested on: MDA-MB-435 melanoma
UACC-257 melanoma = tested on: UACC-257 melanoma
HS 578T breast = tested on: HS 578T breast
LOX IMVI melanoma = tested on: LOX IMVI melanoma

Compound: COC(=O)C[C@](O)(CCCC(C)(C)O)C(=O)O[C@@H]1C(OC)=C[C@]23CCCN2CCc2cc4c(cc2[C@H]13)OCO4
- GI50 (OVCAR-3 ovarian): 13.8 nM
- TGI (OVCAR-3 ovarian): 41.1 nM
- GI50 (SNB-19 CNS): 29.8 nM
- TGI (SNB-19 CNS): > 100000 nM
- GI50 (EKVX NSCLC): 36.5 nM
- TGI (EKVX NSCLC): 201 nM
- GI50 (T-47D breast): 27.5 nM
- TGI (T-47D breast): 187 nM
- GI50 (SNB-75 CNS): 32.1 nM
- TGI (SNB-75 CNS): 78.9 nM
- GI50 (CAKI-1 renal): 42.4 nM
- TGI (CAKI-1 renal): 266 nM
- GI50 (NCI-H322M lung): 84.4 nM
- TGI (NCI-H322M lung): 287 nM
- GI50 (M14 melanoma): 20.3 nM
- TGI (M14 melanoma): 41.6 nM
- GI50 (MALME-3M melanoma): 15 nM
- TGI (MALME-3M melanoma): 33.2 nM
- GI50 (HOP-62 NSCLC): 26.3 nM
- TGI (HOP-62 NSCLC): 134 nM
- GI50 (BT-549 breast): 17.1 nM
- TGI (BT-549 breast): 34.8 nM
- GI50 (HCT-15 colon): 47.7 nM
- TGI (HCT-15 colon): 233 nM
- GI50 (COLO 205 colon): 25.9 nM
- TGI (COLO 205 colon): 120 nM
- GI50 (HCC-2998 colon): < 10 nM
- TGI (HCC-2998 colon): 25.3 nM
- GI50 (NCI-H226 lung): 11.9 nM
- TGI (NCI-H226 lung): 38 nM
- GI50 (SK-MEL-5 melanoma): 13 nM
- TGI (SK-MEL-5 melanoma): 36.6 nM
- GI50 (NCI-H23 lung): 17.6 nM
- TGI (NCI-H23 lung): 36.9 nM
- GI50 (SK-MEL-28 melanoma): 25.7 nM
- TGI (SK-MEL-28 melanoma): 62.5 nM
- GI50 (UACC-62 melanoma): 31.8 nM
- TGI (UACC-62 melanoma): 107 nM
- GI50 (MDA-MB-468 breast): < 10 nM
- TGI (MDA-MB-468 breast): 19.9 nM
- GI50 (PC-3 prostate): 26 nM
- TGI (PC-3 prostate): 139 nM
- GI50 (SW-620 colon): 30.4 nM
- TGI (SW-620 colon): 183 nM
- GI50 (NCI-H522 lung): < 10 nM
- TGI (NCI-H522 lung): 17.3 nM
- GI50 (A549 NSCLC): 18 nM
- TGI (A549 NSCLC): 115 nM
- GI50 (MCF7 breast): < 10 nM
- TGI (MCF7 breast): 1450 nM
- GI50 (OVCAR-8 ovarian): 25.9 nM
- TGI (OVCAR-8 ovarian): 66.8 nM
- GI50 (UO-31 renal): 295 nM
- TGI (UO-31 renal): 1090 nM
- GI50 (SF-268 CNS): 31.1 nM
- TGI (SF-268 CNS): 85.2 nM
- GI50 (MOLT-4 leukemia): < 10 nM
- TGI (MOLT-4 leukemia): < 10 nM
- GI50 (MDA-MB-231 breast): 31.6 nM
- TGI (MDA-MB-231 breast): 105 nM
- GI50 (U251 glioblastoma): 21.4 nM
- TGI (U251 glioblastoma): 66.9 nM
- GI50 (KM12 colon): 27.5 nM
- TGI (KM12 colon): 183 nM
- GI50 (HOP-92 NSCLC): 37.9 nM
- TGI (HOP-92 NSCLC): 102 nM
- GI50 (SK-OV-3 ovarian): 26 nM
- TGI (SK-OV-3 ovarian): 172 nM
- GI50 (SF-295 CNS): 26 nM
- TGI (SF-295 CNS): 55.9 nM
- GI50 (TK-10 renal): 48.7 nM
- TGI (TK-10 renal): 894 nM
- GI50 (RPMI-8226 leukemia): < 10 nM
- TGI (RPMI-8226 leukemia): 15.5 nM
- GI50 (OVCAR-5 ovarian): 48.9 nM
- TGI (OVCAR-5 ovarian): 806 nM
- GI50 (SN12C renal): 40.4 nM
- TGI (SN12C renal): 267 nM
- GI50 (NCI/ADR-RES ovarian): 1780 nM
- TGI (NCI/ADR-RES ovarian): 7740 nM
- GI50 (A498 renal): 19 nM
- TGI (A498 renal): 44.9 nM
- GI50 (HL-60(TB) leukemia): < 10 nM
- TGI (HL-60(TB) leukemia): < 10 nM
- GI50 (ACHN renal): 43.2 nM
- TGI (ACHN renal): 304 nM
- GI50 (786-0 renal): 26 nM
- TGI (786-0 renal): 147 nM
- GI50 (DU-145 prostate): 29.9 nM
- TGI (DU-145 prostate): 85 nM
- GI50 (IGROV1 ovarian): 24 nM
- TGI (IGROV1 ovarian): 115 nM
- GI50 (RXF 393 renal): 17.4 nM
- TGI (RXF 393 renal): 47.9 nM
- GI50 (NCI-H460 NSCLC): < 10 nM
- TGI (NCI-H460 NSCLC): 17 nM
- GI50 (SR leukemia): < 10 nM
- TGI (SR leukemia): < 10 nM
- GI50 (OVCAR-4 ovarian): 26.5 nM
- TGI (OVCAR-4 ovarian): 72.1 nM
- GI50 (SF-539 CNS): 17.2 nM
- TGI (SF-539 CNS): 33.3 nM
- GI50 (HCT-116 colon): < 10 nM
- TGI (HCT-116 colon): 88.7 nM
- GI50 (HT29 colon): 21.4 nM
- TGI (HT29 colon): 66.3 nM
- GI50 (MDA-MB-435 melanoma): 43.4 nM
- TGI (MDA-MB-435 melanoma): 130 nM
- GI50 (UACC-257 melanoma): 26.5 nM
- TGI (UACC-257 melanoma): 65.6 nM
- GI50 (HS 578T breast): 18 nM
- TGI (HS 578T breast): 34.6 nM
- GI50 (LOX IMVI melanoma): < 10 nM
- TGI (LOX IMVI melanoma): 21.9 nM
